# Laboratory results: ChEMBL document CHEMBL1201862, “PubChem BioAssay data set” (2004)
#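 Following 48 hours of exposure in 96-well plates, responses at five concentrations were used to interpolate endpoints linearly. GI50: concentration for 50% inhibition of growth.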 Calls of active or inactive are those of the source. Rule as the data show it: active = GI50 up to about 1.1 µM and inactive = higher.
# Legend:
# Experiment in all cases: growth of human tumour cells (NCI), 48 h
# SN12C = tested on: SN12C
# OVCAR-8 = tested on: OVCAR-8
# CCRF-CEM = tested on: CCRF-CEM
# A498 = tested on: A498
# OVCAR-5 = tested on: OVCAR-5
# SF-295 = tested on: SF-295
# COLO 205 = tested on: COLO 205
# NCI-H522 = tested on: NCI-H522
# BT-549 = tested on: BT-549
# RXF 393 = tested on: RXF 393
# DU-145 = tested on: DU-145
# LOX IMVI = tested on: LOX IMVI
# HCC 2998 = tested on: HCC 2998
# SNB-75 = tested on: SNB-75
# SK-MEL-2 = tested on: SK-MEL-2
# MCF7 = tested on: MCF7
# OVCAR-3 = tested on: OVCAR-3
# IGROV-1 = tested on: IGROV-1
# 786-0 = tested on: 786-0
# K562 = tested on: K562
# UO-31 = tested on: UO-31
# Malme-3M = tested on: Malme-3M
# SK-MEL-5 = tested on: SK-MEL-5
# M14 = tested on: M14
# A549 = tested on: A549
# SF-268 = tested on: SF-268
# CAKI-1 = tested on: CAKI-1
# NCI-H226 = tested on: NCI-H226
# ACHN = tested on: ACHN
# SNB-19 = tested on: SNB-19
# UACC-62 = tested on: UACC-62
# NCI-H23 = tested on: NCI-H23
# MOLT-4 = tested on: MOLT-4
# U-251 = tested on: U-251
# KM12 = tested on: KM12
# HOP-62 = tested on: HOP-62
# HOP-92 = tested on: HOP-92
# MDA-MB-435 = tested on: MDA-MB-435
# SW-620 = tested on: SW-620
# NCI/ADR-RES = tested on: NCI/ADR-RES
# HL-60 = tested on: HL-60
# UACC-257 = tested on: UACC-257
# HCT-15 = tested on: HCT-15
# PC-3 = tested on: PC-3
# MDA-N = tested on: MDA-N
# OVCAR-4 = tested on: OVCAR-4
# T47D = tested on: T47D
# TK-10 = tested on: TK-10
# HCT-116 = tested on: HCT-116
# RPMI-8226 = tested on: RPMI-8226
# MDA-MB-231 = tested on: MDA-MB-231
# SK-MEL-28 = tested on: SK-MEL-28
# SK-OV-3 = tested on: SK-OV-3
# HT-29 = tested on: HT-29
# SF-539 = tested on: SF-539
# Hs-578T = tested on: Hs-578T
# EKVX = tested on: EKVX
# NCI-H460 = tested on: NCI-H460
compound,measurement,setting,value
CC/C(Cl)=N\OC(=O)Nc1ccc(OC)cc1,GI50,SN12C,6.55 µM (inactive)
same,GI50,OVCAR-8,15 µM (inactive)
same,GI50,CCRF-CEM,1.75 µM (inactive)
same,GI50,A498,18.2 µM (inactive)
same,GI50,OVCAR-5,6.11 µM (inactive)
same,GI50,SF-295,17 µM (inactive)
same,GI50,COLO 205,2.11 µM (inactive)
same,GI50,NCI-H522,0.847 µM (active)
same,GI50,BT-549,1.6 µM (inactive)
same,GI50,RXF 393,2.15 µM (inactive)
same,GI50,DU-145,17.3 µM (inactive)
same,GI50,LOX IMVI,2.03 µM (inactive)
same,GI50,HCC 2998,5.58 µM (inactive)
same,GI50,SNB-75,6.27 µM (inactive)
same,GI50,SK-MEL-2,18.2 µM (inactive)
same,GI50,MCF7,5.77 µM (inactive)
same,GI50,OVCAR-3,5.68 µM (inactive)
same,GI50,IGROV-1,6.71 µM (inactive)
same,GI50,786-0,1.65 µM (inactive)
same,GI50,K562,1.98 µM (inactive)
same,GI50,UO-31,7.94 µM (inactive)
same,GI50,Malme-3M,1.84 µM (inactive)
same,GI50,SK-MEL-5,6.18 µM (inactive)
same,GI50,M14,5.19 µM (inactive)
same,GI50,A549,17.2 µM (inactive)
same,GI50,SF-268,14.3 µM (inactive)
same,GI50,CAKI-1,1.65 µM (inactive)
same,GI50,NCI-H226,12.2 µM (inactive)
same,GI50,ACHN,1.92 µM (inactive)
same,GI50,SNB-19,24 µM (inactive)
same,GI50,UACC-62,8.57 µM (inactive)
same,GI50,NCI-H23,15.4 µM (inactive)
same,GI50,MOLT-4,2.07 µM (inactive)
same,GI50,U-251,19.5 µM (inactive)
same,GI50,KM12,15.1 µM (inactive)
same,GI50,HOP-62,16.5 µM (inactive)
same,GI50,HOP-92,2.43 µM (inactive)
same,GI50,MDA-MB-435,8.04 µM (inactive)
same,GI50,SW-620,2.7 µM (inactive)
same,GI50,NCI/ADR-RES,6.17 µM (inactive)
same,GI50,HL-60,1.85 µM (inactive)
same,GI50,UACC-257,15.7 µM (inactive)
same,GI50,HCT-15,1.6 µM
same,GI50,PC-3,15.9 µM (inactive)
same,GI50,MDA-N,6.14 µM (inactive)
same,GI50,OVCAR-4,16.7 µM (inactive)
same,GI50,T47D,5.89 µM (inactive)
same,GI50,TK-10,5.43 µM (inactive)
same,GI50,HCT-116,5.86 µM (inactive)
same,GI50,RPMI-8226,1.9 µM (inactive)
same,GI50,MDA-MB-231,7.06 µM (inactive)
same,GI50,SK-MEL-28,6.71 µM (inactive)
same,GI50,SK-OV-3,17.5 µM (inactive)
same,GI50,HT-29,6.05 µM (inactive)
same,GI50,SF-539,4.89 µM (inactive)
same,GI50,Hs-578T,14.4 µM (inactive)
same,GI50,EKVX,5.9 µM (inactive)
same,GI50,NCI-H460,20.2 µM (inactive)
COc1ccc(/C=N\NC(=O)Nc2cccc3ccccc23)cc1,GI50,SN12C,49.3 µM (inactive)
same,GI50,OVCAR-8,> 10 µM (inactive)
same,GI50,CCRF-CEM,> 100 µM (inactive)
same,GI50,A498,18.2 µM (inactive)
same,GI50,OVCAR-5,> 100 µM (inactive)
same,GI50,COLO 205,> 100 µM (inactive)
same,GI50,NCI-H522,15.6 µM (inactive)
same,GI50,BT-549,29.9 µM (inactive)
same,GI50,RXF 393,> 10 µM (inactive)
same,GI50,DU-145,38.5 µM (inactive)
same,GI50,LOX IMVI,13.1 µM (inactive)
same,GI50,HCC 2998,47.5 µM (inactive)
same,GI50,SNB-75,9.98 µM (inactive)
same,GI50,SK-MEL-2,9.14 µM (inactive)
same,GI50,MCF7,4.44 µM (inactive)
same,GI50,IGROV-1,17.3 µM (inactive)
same,GI50,786-0,11.4 µM (inactive)
same,GI50,UO-31,35.3 µM (inactive)
same,GI50,Malme-3M,26.2 µM (inactive)
same,GI50,SK-MEL-5,28.2 µM (inactive)
same,GI50,M14,35.4 µM (inactive)
same,GI50,A549,45.4 µM (inactive)
same,GI50,SF-268,17.7 µM (inactive)
same,GI50,CAKI-1,13.7 µM (inactive)
same,GI50,NCI-H226,28.2 µM (inactive)
same,GI50,ACHN,14.5 µM (inactive)
same,GI50,SNB-19,17.1 µM (inactive)
same,GI50,NCI-H23,34.6 µM (inactive)
same,GI50,U-251,13.9 µM (inactive)
same,GI50,KM12,11.7 µM (inactive)
same,GI50,HOP-62,11 µM (inactive)
same,GI50,HOP-92,21.4 µM (inactive)
same,GI50,MDA-MB-435,4.06 µM (inactive)
same,GI50,SW-620,51.6 µM (inactive)
same,GI50,NCI/ADR-RES,22 µM (inactive)
same,GI50,HL-60,4.82 µM (inactive)
same,GI50,UACC-257,34.9 µM (inactive)
same,GI50,HCT-15,6.79 µM
same,GI50,PC-3,20.8 µM (inactive)
same,GI50,MDA-N,2.7 µM (inactive)
same,GI50,OVCAR-4,15.6 µM (inactive)
same,GI50,T47D,14.1 µM (inactive)
same,GI50,TK-10,20.7 µM (inactive)
same,GI50,HCT-116,13.7 µM (inactive)
same,GI50,RPMI-8226,> 100 µM (inactive)
same,GI50,MDA-MB-231,20.5 µM (inactive)
same,GI50,SK-MEL-28,> 100 µM (inactive)
same,GI50,HT-29,8.97 µM (inactive)
same,GI50,SF-539,14 µM (inactive)
same,GI50,Hs-578T,6.75 µM (inactive)
same,GI50,EKVX,26.9 µM (inactive)
same,GI50,NCI-H460,10 µM (inactive)
